# Patent US9932314B2, “Pyrazole compounds and their use as T-type calcium channel blockers” (IDORSIA PHARMACEUTICALS LTD, priority 2015, dated 2018)
# Molecular target: T1, voltage-dependent T-type calcium channel subunit alpha-1G (Cav3.2) (Homo sapiens, UniProt O95180)
# T1 construct: expressed in transfected cells; host or cells: HEK293
# Assay: FLIPR calcium flux assay, HEK293 cells recombinantly expressing Cav3.2
# Type: cell-based
# Conditions: Cav3.2-channel, Fluo-4-AM, 3 min incubation, stimulation with 10 mM CaCl2
# Summary of the method: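 HEK293 cells stably expressing human Cav3.2 were loaded with Fluo-4-AM. Compounds diluted in TEAC buffer (pH 7.2) were preincubated for 3 min, then Ca2+ entry was triggered by 10 mM final CaCl2. Inhibition curves were fitted sigmoidally to the area under the fluorescence trace.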
# T1 sequence (O95180 whole entry): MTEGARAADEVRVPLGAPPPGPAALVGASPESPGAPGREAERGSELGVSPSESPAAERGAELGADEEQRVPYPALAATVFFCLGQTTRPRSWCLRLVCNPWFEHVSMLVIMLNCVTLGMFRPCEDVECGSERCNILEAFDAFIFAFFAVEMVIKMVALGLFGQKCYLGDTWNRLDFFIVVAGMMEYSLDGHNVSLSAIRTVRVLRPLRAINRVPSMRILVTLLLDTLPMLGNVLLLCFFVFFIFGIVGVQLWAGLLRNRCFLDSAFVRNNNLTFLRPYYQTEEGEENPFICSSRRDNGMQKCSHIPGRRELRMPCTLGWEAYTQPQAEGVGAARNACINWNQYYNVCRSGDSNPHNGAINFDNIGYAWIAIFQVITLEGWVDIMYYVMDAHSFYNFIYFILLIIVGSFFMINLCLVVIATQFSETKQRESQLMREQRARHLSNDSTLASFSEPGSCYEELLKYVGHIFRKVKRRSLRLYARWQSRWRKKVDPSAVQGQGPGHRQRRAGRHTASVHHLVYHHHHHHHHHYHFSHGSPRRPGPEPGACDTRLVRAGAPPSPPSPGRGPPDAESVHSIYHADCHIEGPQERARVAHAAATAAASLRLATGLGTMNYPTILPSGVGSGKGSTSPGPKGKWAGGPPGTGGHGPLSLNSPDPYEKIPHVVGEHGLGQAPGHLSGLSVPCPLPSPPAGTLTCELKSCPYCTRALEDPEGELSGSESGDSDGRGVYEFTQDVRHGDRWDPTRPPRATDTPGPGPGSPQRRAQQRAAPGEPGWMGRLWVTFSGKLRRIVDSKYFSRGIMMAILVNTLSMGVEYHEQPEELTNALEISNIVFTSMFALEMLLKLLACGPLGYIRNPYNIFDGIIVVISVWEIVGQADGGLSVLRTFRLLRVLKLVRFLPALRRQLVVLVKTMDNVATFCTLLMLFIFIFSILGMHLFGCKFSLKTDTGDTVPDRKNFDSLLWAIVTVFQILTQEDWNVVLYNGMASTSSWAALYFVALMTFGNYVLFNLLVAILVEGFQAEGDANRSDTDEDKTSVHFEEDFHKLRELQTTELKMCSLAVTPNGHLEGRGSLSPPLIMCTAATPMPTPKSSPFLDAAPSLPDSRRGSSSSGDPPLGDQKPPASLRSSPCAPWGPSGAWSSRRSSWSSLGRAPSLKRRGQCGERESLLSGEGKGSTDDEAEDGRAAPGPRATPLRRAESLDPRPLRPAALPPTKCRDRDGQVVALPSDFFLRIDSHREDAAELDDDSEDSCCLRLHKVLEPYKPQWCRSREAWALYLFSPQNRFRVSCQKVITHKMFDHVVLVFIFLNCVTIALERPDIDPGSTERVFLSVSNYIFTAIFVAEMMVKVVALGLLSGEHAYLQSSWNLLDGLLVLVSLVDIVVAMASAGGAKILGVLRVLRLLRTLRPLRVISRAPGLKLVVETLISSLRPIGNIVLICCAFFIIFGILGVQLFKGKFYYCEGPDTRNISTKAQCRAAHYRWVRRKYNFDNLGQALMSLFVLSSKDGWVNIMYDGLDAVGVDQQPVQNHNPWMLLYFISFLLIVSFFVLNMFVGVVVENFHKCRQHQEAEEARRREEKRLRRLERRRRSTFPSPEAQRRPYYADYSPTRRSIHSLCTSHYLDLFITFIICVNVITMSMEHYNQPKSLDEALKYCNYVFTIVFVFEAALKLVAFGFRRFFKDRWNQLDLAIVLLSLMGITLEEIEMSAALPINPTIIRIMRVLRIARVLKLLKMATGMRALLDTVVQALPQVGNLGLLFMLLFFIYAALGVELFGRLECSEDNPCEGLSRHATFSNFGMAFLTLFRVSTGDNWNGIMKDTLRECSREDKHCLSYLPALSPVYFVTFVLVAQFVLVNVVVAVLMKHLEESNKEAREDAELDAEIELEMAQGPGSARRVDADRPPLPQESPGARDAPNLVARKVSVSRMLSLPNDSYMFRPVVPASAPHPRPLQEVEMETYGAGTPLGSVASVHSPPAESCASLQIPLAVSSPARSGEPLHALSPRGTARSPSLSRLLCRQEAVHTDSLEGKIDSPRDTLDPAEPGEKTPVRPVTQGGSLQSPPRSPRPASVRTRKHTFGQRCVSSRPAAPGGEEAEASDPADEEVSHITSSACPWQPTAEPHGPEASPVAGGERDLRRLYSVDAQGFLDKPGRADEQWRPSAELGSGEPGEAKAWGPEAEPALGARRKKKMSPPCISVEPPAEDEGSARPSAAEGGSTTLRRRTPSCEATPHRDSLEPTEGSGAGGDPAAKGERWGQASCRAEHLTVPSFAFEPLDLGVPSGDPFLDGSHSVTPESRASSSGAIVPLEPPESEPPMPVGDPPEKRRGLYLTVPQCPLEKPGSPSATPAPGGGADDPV
row,Structure (SMILES),IC50
1,"COCCN(C)c1ccc(CC(=O)Nc2ccn(Cc3ccc(C#N)cc3)n2)cn1 [Example 181, N-[1-(4-Cyano-benzyl)-1H-pyrazol-3-yl]-2-{6-[(2-methoxy-ethyl)-methyl-amino]-pyridin-3-yl}-acetamide]",272 nM
2,"COCCN(C)c1ccc(CC(=O)Nc2ccn(Cc3ccc(F)cc3)n2)cn1 [Example 182, N-[1-(4-Fluoro-benzyl)-1H-pyrazol-3-yl]-2-{6-[(2-methoxy-ethyl)-methyl-amino]-pyridin-3-yl}-acetamide]",65 nM
3,"COCCN(C)c1ccc(CC(=O)Nc2ccn(Cc3ccc(OC)cc3)n2)cn1 [Example 183, N-[1-(4-Methoxy-benzyl)-1H-pyrazol-3-yl]-2-{6-[(2-methoxy-ethyl)-methyl-amino]-pyridin-3-yl}-acetamide]",530 nM
4,"CN(CC1CC1)c1ccc(CC(=O)Nc2ccn(Cc3ccc(C#N)cn3)n2)cn1 [Example 184, N-[1-(5-Cyano-pyridin-2-ylmethyl)-1H-pyrazol-3-yl]-2-[6-(cyclopropylmethyl-methyl-amino)-pyridin-3-yl]-acetamide]",490 nM
5,"COc1ccc(Cn2ccc(NC(=O)Cc3ccc(N(C)CC4CC4)nc3)n2)cc1 [Example 188, 2-[6-(Cyclopropylmethyl-methyl-amino)-pyridin-3-yl]-N-[1-(4-methoxy-benzyl)-1H-pyrazol-3-yl]-acetamide]",60 nM
6,"CCN(CC)c1ccc(CC(=O)Nc2ccn(Cc3ccc(C#N)cc3)n2)cn1 [Example 189, N-[1-(4-Cyano-benzyl)-1H-pyrazol-3-yl]-2-(6-diethylamino-pyridin-3-yl)-acetamide]",88 nM
7,"CCN(CC)c1ccc(CC(=O)Nc2ccn(Cc3ccc(OC)cc3)n2)cn1 [Example 191, 2-(6-Diethylamino-pyridin-3-yl)-N-[1-(4-methoxy-benzyl)-1H-pyrazol-3-yl]-acetamide]",93 nM
8,"CC(C)c1ccc(CC(=O)Nc2ccn(Cc3ccc(C4CC4)cc3)n2)cc1 [Example 192, N-[1-(4-Cyclopropyl-benzyl)-1H-pyrazol-3-yl]-2-(4-isopropyl-phenyl)-acetamide]",133 nM
9,"O=C(Cc1ccc(C2CC2)nc1)Nc1ccn(Cc2ccc(Cl)c(F)c2)n1 [Example 193, N-[1-(4-Chloro-3-fluoro-benzyl)-1H-pyrazol-3-yl]-2-(6-cyclopropyl-pyridin-3-yl)-acetamide]",78 nM
10,"O=C(Cc1ccc(C2CC2)nc1)Nc1ccn(Cc2ccc(F)c(Cl)c2)n1 [Example 194, N-[1-(3-Chloro-4-fluoro-benzyl)-1H-pyrazol-3-yl]-2-(6-cyclopropyl-pyridin-3-yl)-acetamide]",61 nM
11,"CC(C)c1ccc(CC(=O)Nc2ccn(Cc3ccc(OC4CC4)cc3)n2)cc1 [Example 195, N-[1-(4-Cyclopropoxy-benzyl)-1H-pyrazol-3-yl]-2-(4-isopropyl-phenyl)-acetamide]",47 nM
12,"N#Cc1ccc(Cn2ccc(NC(=O)Cc3ccc(OC4CCC4)cc3)n2)nc1 [Example 196, N-[1-(5-Cyano-pyridin-2-ylmethyl)-1H-pyrazol-3-yl]-2-(4-cyclobutoxy-phenyl)-acetamide]",176 nM
13,"N#Cc1ccc(Cn2ccc(NC(=O)Cc3ccc(OC4CCC4)cc3)n2)cc1 [Example 197, N-[1-(4-Cyano-benzyl)-1H-pyrazol-3-yl]-2-(4-cyclobutoxy-phenyl)-acetamide]",54 nM
14,"O=C(Cc1ccc(OC2CCC2)cc1)Nc1ccn(Cc2ccc(F)cc2)n1 [Example 198, 2-(4-Cyclobutoxy-phenyl)-N-[1-(4-fluoro-benzyl)-1H-pyrazol-3-yl]-acetamide]",16 nM
15,"COc1ccc(Cn2ccc(NC(=O)Cc3ccc(OC4CCC4)cc3)n2)cc1 [Example 199, 2-(4-Cyclobutoxy-phenyl)-N-[1-(4-methoxy-benzyl)-1H-pyrazol-3-yl]-acetamide]",74 nM
16,"O=C(Cc1ccc(OC2CCC2)cc1)Nc1ccn(Cc2ccc(F)cn2)n1 [Example 200, 2-(4-Cyclobutoxy-phenyl)-N-[1-(5-fluoro-pyridin-2-ylmethyl)-1H-pyrazol-3-yl]-acetamide]",67 nM
17,"O=C(Cc1ccc(N2CCCC2=O)cc1)Nc1ccn(Cc2ccc(F)cc2)n1 [Example 204, N-[1-(4-Fluoro-benzyl)-1H-pyrazol-3-yl]-2-[4-(2-oxo-pyrrolidin-1-yl)-phenyl]-acetamide]",79 nM
18,"O=C(Cc1ccc2nccnc2c1)Nc1ccn(Cc2ccc(F)c(F)c2)n1 [Example 205, N-[1-(3,4-Difluoro-benzyl)-1H-pyrazol-3-yl]-2-quinoxalin-6-yl-acetamide]",288 nM
19,"O=C(Cc1ccc2cccnc2c1)Nc1ccn(Cc2ccc(F)c(F)c2)n1 [Example 206, N-[1-(3,4-Difluoro-benzyl)-1H-pyrazol-3-yl]-2-quinolin-7-yl-acetamide]",50 nM
20,"O=C(Cc1ccc2c(c1)OCC(=O)N2)Nc1ccn(Cc2ccc(F)c(F)c2)n1 [Example 208, N-[1-(3,4-Difluoro-benzyl)-1H-pyrazol-3-yl]-2-(3-oxo-3,4-dihydro-2H-benzo[1,4]oxazin-7-yl)-acetamide]",88 nM
21,"CN1C(=O)COc2cc(CC(=O)Nc3ccn(Cc4ccc(F)c(F)c4)n3)ccc21 [Example 209, N-[1-(3,4-Difluoro-benzyl)-1H-pyrazol-3-yl]-2-(4-methyl-3-oxo-3,4-dihydro-2H-benzo[1,4]oxazin-7-yl)-acetamide]",53 nM
22,"Cn1ccc2cc(CC(=O)Nc3ccn(Cc4ccc(C#N)cc4)n3)cnc21 [Example 214, N-[1-(4-Cyano-benzyl)-1H-pyrazol-3-yl]-2-(1-methyl-1H-pyrrolo[2,3-b]pyridin-5-yl)-acetamide]",164 nM
23,"COc1ccc(Cn2ccc(NC(=O)Cc3cnc4c(ccn4C)c3)n2)cc1 [Example 215, N-[1-(4-Methoxy-benzyl)-1H-pyrazol-3-yl]-2-(1-methyl-1H-pyrrolo[2,3-b]pyridin-5-yl)-acetamide]",599 nM
24,"N#Cc1ccc(Cn2ccc(NC(=O)Cc3ccc(C4CC4)nc3)n2)cc1F [Example 216, N-[1-(4-Cyano-3-fluoro-benzyl)-1H-pyrazol-3-yl]-2-(6-cyclopropyl-pyridin-3-yl)-acetamide]",269 nM
25,"O=C(Cc1ccc2[nH]c(=O)oc2c1)Nc1ccn(Cc2ccc(F)c(F)c2)n1 [Example 218, N-[1-(3,4-Difluoro-benzyl)-1H-pyrazol-3-yl]-2-(2-oxo-2,3-dihydro-benzooxazol-6-yl)-acetamide]",79 nM
26,"Cn1cnc2cc(CC(=O)Nc3ccn(Cc4ccc(F)c(F)c4)n3)ccc21 [Example 230, N-[1-(3,4-Difluoro-benzyl)-1H-pyrazol-3-yl]-2-(1-methyl-1H-benzoimidazol-5-yl)-acetamide]",255 nM

# Second part, the molecule after the results:
row,IC50,Structure (SMILES)
1,33 nM,"COCCN(C)c1ccc(CC(=O)Nc2ccn(Cc3ccc(F)c(F)c3)n2)cn1 [Example 180, N-[1-(3,4-Difluoro-benzyl)-1H-pyrazol-3-yl]-2-{6-[(2-methoxy-ethyl)-methyl-amino]-pyridin-3-yl}-acetamide]"
2,7.7 nM,"CN(CC1CC1)c1ccc(CC(=O)Nc2ccn(Cc3ccc(F)c(F)c3)n2)cn1 [Example 185, 2-[6-(Cyclopropylmethyl-methyl-amino)-pyridin-3-yl]-N-[1-(3,4-difluoro-benzyl)-1H-pyrazol-3-yl]-acetamide]"
3,41 nM,"CN(CC1CC1)c1ccc(CC(=O)Nc2ccn(Cc3ccc(C#N)cc3)n2)cn1 [Example 186, N-[1-(4-Cyano-benzyl)-1H-pyrazol-3-yl]-2-[6-(cyclopropylmethyl-methyl-amino)-pyridin-3-yl]-acetamide]"
4,15 nM,"CN(CC1CC1)c1ccc(CC(=O)Nc2ccn(Cc3ccc(F)cc3)n2)cn1 [Example 187, 2-[6-(Cyclopropylmethyl-methyl-amino)-pyridin-3-yl]-N-[1-(4-fluoro-benzyl)-1H-pyrazol-3-yl]-acetamide]"
5,21 nM,"CCN(CC)c1ccc(CC(=O)Nc2ccn(Cc3ccc(F)cc3)n2)cn1 [Example 190, 2-(6-Diethylamino-pyridin-3-yl)-N-[1-(4-fluoro-benzyl)-1H-pyrazol-3-yl]-acetamide]"
6,8 nM,"CC(C)c1ccc(CC(=O)Nc2ccn(Cc3ccc(F)c(C#N)n3)n2)cc1 [Example 210, N-[1-(6-Cyano-5-fluoro-pyridin-2-ylmethyl)-1H-pyrazol-3-yl]-2-(4-isopropyl-phenyl)-acetamide]"
7,3.1 nM,"CC(C)c1ccc(CC(=O)Nc2ccn(Cc3ccc(F)c(Cl)n3)n2)cc1 [Example 211, N-[1-(6-Chloro-5-fluoro-pyridin-2-ylmethyl)-1H-pyrazol-3-yl]-2-(4-isopropyl-phenyl)-acetamide]"
8,31 nM,"Cn1ccc2cc(CC(=O)Nc3ccn(Cc4ccc(F)cc4)n3)cnc21 [Example 213, N-[1-(4-Fluoro-benzyl)-1H-pyrazol-3-yl]-2-(1-methyl-1H-pyrrolo[2,3-b]pyridin-5-yl)-acetamide]"
9,3.1 nM,"Cn1ccc2cc(CC(=O)Nc3ccn(Cc4ccc(F)c(F)c4)n3)ccc21 [Example 220, N-[1-(3,4-Difluoro-benzyl)-1H-pyrazol-3-yl]-2-(1-methyl-1H-indol-5-yl)-acetamide]"
10,5 nM,"Cn1ccc2ccc(CC(=O)Nc3ccn(Cc4ccc(F)c(F)c4)n3)cc21 [Example 221, N-[1-(3,4-Difluoro-benzyl)-1H-pyrazol-3-yl]-2-(1-methyl-1H-indol-6-yl)-acetamide]"
11,21 nM,"Cn1ncc2ccc(CC(=O)Nc3ccn(Cc4ccc(F)c(F)c4)n3)cc21 [Example 224, N-[1-(3,4-Difluoro-benzyl)-1H-pyrazol-3-yl]-2-(1-methyl-1H-indazol-6-yl)-acetamide]"
12,25 nM,"O=C(Cc1ccc(C2(O)COC2)cc1)Nc1ccn(Cc2ccc(F)c(F)c2)n1 [Example 226, N-[1-(3,4-Difluoro-benzyl)-1H-pyrazol-3-yl]-2-[4-(3-hydroxy-oxetan-3-yl)-phenyl]-acetamide]"
13,44 nM,"CC1(C)C(=O)Nc2ccc(CC(=O)Nc3ccn(Cc4ccc(F)c(F)c4)n3)cc21 [Example 228, N-[1-(3,4-Difluoro-benzyl)-1H-pyrazol-3-yl]-2-(3,3-dimethyl-2-oxo-2,3-dihydro-1H-indol-5-yl)-acetamide]"
